Results reported in US20240366599A1, “HUMAN EFFICACIOUS DOSE AND DOSAGE SCHEDULE OF SPR720” (SPERO THERAPEUTICS, INC., priority 2021, published 2024).

Tests used:
Type in all cases: in vivo, human
[1] = Single ascending dose (SAD) study: safety and tolerability
Protocol: (§1) The following study was conducted in healthy volunteers to evaluate the safety, tolerability, and pharmacokinetics of SPR720/SPR719. The study included 7 SAD cohorts, of which one was a food effect cohort. SPR720 or placebo (n=8/cohort, 3:1 randomization) were administered to subjects at doses of 100 to 2000 mg in the fasted or fed state. The cohorts administered SPR720 in the fed state were administered 1000 mg or 500 mg (healthy elderly cohort) SPR720. A schematic of the study design appears in FIG. 1.

[2] = Multiple ascending dose (MAD) study: safety and tolerability
Protocol: The multiple ascending dose study utilized 5 cohorts of 8 subjects. Three cohorts were administered a total daily dose of 500 mg to 1500 mg in the fasted state for 7 days. Two cohorts were administered a total daily dose of 500 mg or 1000 mg in the fed state for 14 days. Safety was also monitored throughout the study. […] This conclusion was further supported by stable SPR719 trough concentrations by Day 7 (data not shown). Mean plasma concentration/time curves are shown for the MAD cohorts at days 1 (FIG. 3A), 7 (FIG. 3B), and 14 (FIG. 3C). 2.

[3] = Single ascending dose (SAD) study: pharmacokinetics of SPR719 after oral SPR720; details: SPR720 1000 mg, fed vs fasted; considered non-clinically significant
Protocol: as §1

[4] = SAD Cohort 4, 1000 mg Fasted, N=6
[5] = MAD Cohort 1, 500 mg 7 days, fasted, N=6
[6] = MAD Cohort 2, 1000 mg 7 days, fasted, N=6
[7] = MAD Cohort 3, 750 mg q12 h 7 days, fasted, N=6
[8] = MAD Cohort 4, 500 mg 14 days, fed, N=6
[9] = MAD Cohort 5, 1000 mg 14 days, fed, N=6

CCNC(=O)Nc1nc2cc(-c3cnc(C(C)(C)OP(=O)(O)O)cn3)c(F)c([C@H]3CCCO3)c2[nH]1 [SPR720, fobrepodacin]
Incidence of TEAE: Diarrhea ([1]; SAD 500 mg Elderly, N=6): 0 Number (%) of Subjects | Incidence of TEAE: Headache ([1]; SAD 500 mg Elderly, N=6): 0 Number (%) of Subjects | Incidence of TEAE: Nausea ([1]; SAD 500 mg Elderly, N=6): 0 Number (%) of Subjects | Incidence of TEAE: Vomiting ([1]; SAD 500 mg Elderly, N=6): 0 Number (%) of Subjects | Subjects reporting TEAEs ([1]; SAD 1500 mg cohort): 66.7% | Subjects reporting TEAEs ([1]; SAD 2000 mg cohort): 100% | Incidence of TEAE: Diarrhea ([1]; SAD Cohort 1, 100 mg, N=6): 0 Number (%) of Subjects | Incidence of TEAE: Headache ([1]; SAD Cohort 1, 100 mg, N=6): 0 Number (%) of Subjects | Incidence of TEAE: Nausea ([1]; SAD Cohort 1, 100 mg, N=6): 0 Number (%) of Subjects | Incidence of TEAE: Vomiting ([1]; SAD Cohort 1, 100 mg, N=6): 0 Number (%) of Subjects | Incidence of TEAE: Diarrhea ([1]; SAD Cohort 2, 250 mg, N=6): 0 Number (%) of Subjects | Incidence of TEAE: Headache ([1]; SAD Cohort 2, 250 mg, N=6): 0 Number (%) of Subjects | Incidence of TEAE: Nausea ([1]; SAD Cohort 2, 250 mg, N=6): 0 Number (%) of Subjects | Incidence of TEAE: Vomiting ([1]; SAD Cohort 2, 250 mg, N=6): 0 Number (%) of Subjects | Incidence of TEAE: Diarrhea ([1]; SAD Cohort 3, 500 mg, N=6): 1 (16.7) Number (%) of Subjects | Incidence of TEAE: Headache ([1]; SAD Cohort 3, 500 mg, N=6): 0 Number (%) of Subjects | Incidence of TEAE: Nausea ([1]; SAD Cohort 3, 500 mg, N=6): 0 Number (%) of Subjects | Incidence of TEAE: Vomiting ([1]; SAD Cohort 3, 500 mg, N=6): 0 Number (%) of Subjects | Incidence of TEAE: Diarrhea [1, 4]: 0 Number (%) of Subjects | Incidence of TEAE: Headache [1, 4]: 1 (16.7) Number (%) of Subjects | Incidence of TEAE: Nausea [1, 4]: 0 Number (%) of Subjects | Incidence of TEAE: Vomiting [1, 4]: 0 Number (%) of Subjects | Incidence of TEAE: Diarrhea ([1]; SAD Cohort 4, 1000 mg Fed, N=6): 0 Number (%) of Subjects | Incidence of TEAE: Headache ([1]; SAD Cohort 4, 1000 mg Fed, N=6): 0 Number (%) of Subjects | Incidence of TEAE: Nausea ([1]; SAD Cohort 4, 1000 mg Fed, N=6): 0 Number (%) of Subjects | Incidence of TEAE: Vomiting ([1]; SAD Cohort 4, 1000 mg Fed, N=6): 0 Number (%) of Subjects | Incidence of TEAE: Diarrhea ([1]; SAD Cohort 5, 1500 mg, N=6): 0 Number (%) of Subjects | Incidence of TEAE: Headache ([1]; SAD Cohort 5, 1500 mg, N=6): 3 (50.0) Number (%) of Subjects | Incidence of TEAE: Nausea ([1]; SAD Cohort 5, 1500 mg, N=6): 4 (66.7) Number (%) of Subjects | Incidence of TEAE: Vomiting ([1]; SAD Cohort 5, 1500 mg, N=6): 3 (50.0) Number (%) of Subjects | Incidence of TEAE: Diarrhea ([1]; SAD Cohort 6, 2000 mg, N=6): 2 (33.3) Number (%) of Subjects | Incidence of TEAE: Headache ([1]; SAD Cohort 6, 2000 mg, N=6): 3 (50.0) Number (%) of Subjects | Incidence of TEAE: Nausea ([1]; SAD Cohort 6, 2000 mg, N=6): 5 (83.3) Number (%) of Subjects | Incidence of TEAE: Vomiting ([1]; SAD Cohort 6, 2000 mg, N=6): 5 (83.3) Number (%) of Subjects | Incidence of TEAE: Diarrhea ([1]; SAD Overall SPR720, n=42): 3 (7.1) Number (%) of Subjects | Incidence of TEAE: Headache ([1]; SAD Overall SPR720, n=42): 7 (16.7) Number (%) of Subjects | Incidence of TEAE: Nausea ([1]; SAD Overall SPR720, n=42): 9 (21.4) Number (%) of Subjects | Incidence of TEAE: Vomiting ([1]; SAD Overall SPR720, n=42): 8 (19.0) Number (%) of Subjects | Subjects reporting TEAEs ([1]; SAD overall, 18 of 42 subjects): 42.9% | Total number of TEAEs reported ([1]; SAD overall, 42 subjects): 35 | Serious adverse events ([1]; SAD study): No serious adverse events | Severity of TEAEs ([1]; SAD, all TEAEs): mild or moderate | Subjects reporting TEAEs ([2]; MAD 1000 mg cohorts): 50.0% | Subjects reporting TEAEs ([2]; MAD 1500 mg (750 mg q12h) cohort): 66.7% | Incidence of TEAE: Abdominal Pain [2, 5]: 0 Number (%) of Subjects | Incidence of TEAE: Diarrhea (first line) [2, 5]: 2 (33.3) Number (%) of Subjects | Incidence of TEAE: Diarrhea (second line) [2, 5]: 0 Number (%) of Subjects | Incidence of TEAE: Headache [2, 5]: 2 (33.3) Number (%) of Subjects | Incidence of TEAE: Nausea [2, 5]: 2 (33.3) Number (%) of Subjects | Incidence of TEAE: Vomiting [2, 5]: 1 (16.7) Number (%) of Subjects | Incidence of TEAE: Abdominal Pain [2, 6]: 1 (16.7) Number (%) of Subjects | Incidence of TEAE: Diarrhea (first line) [2, 6]: 4 (66.7) Number (%) of Subjects | Incidence of TEAE: Diarrhea (second line) [2, 6]: 2 (33.3) Number (%) of Subjects | Incidence of TEAE: Headache [2, 6]: 3 (50.0) Number (%) of Subjects | Incidence of TEAE: Nausea [2, 6]: 1 (16.7) Number (%) of Subjects | Incidence of TEAE: Vomiting [2, 6]: 2 (33.3) Number (%) of Subjects | Incidence of TEAE: Abdominal Pain [2, 7]: 0 Number (%) of Subjects | Incidence of TEAE: Diarrhea (first line) [2, 7]: 4 (66.7) Number (%) of Subjects | Incidence of TEAE: Diarrhea (second line) [2, 7]: 1 (16.7) Number (%) of Subjects | Incidence of TEAE: Headache [2, 7]: 2 (33.3) Number (%) of Subjects | Incidence of TEAE: Nausea [2, 7]: 3 (50.0) Number (%) of Subjects | Incidence of TEAE: Vomiting [2, 7]: 1 (16.7) Number (%) of Subjects | Incidence of TEAE: Abdominal Pain [2, 8]: 0 Number (%) of Subjects | Incidence of TEAE: Diarrhea (first line) [2, 8]: 0 Number (%) of Subjects | Incidence of TEAE: Diarrhea (second line) [2, 8]: 0 Number (%) of Subjects | Incidence of TEAE: Headache [2, 8]: 1 (16.7) Number (%) of Subjects | Incidence of TEAE: Nausea [2, 8]: 0 Number (%) of Subjects | Incidence of TEAE: Vomiting [2, 8]: 0 Number (%) of Subjects | Incidence of TEAE: Abdominal Pain [2, 9]: 1 (16.7) Number (%) of Subjects | Incidence of TEAE: Diarrhea (first line) [2, 9]: 3 (50.0) Number (%) of Subjects | Incidence of TEAE: Diarrhea (second line) [2, 9]: 0 Number (%) of Subjects | Incidence of TEAE: Headache [2, 9]: 0 Number (%) of Subjects | Incidence of TEAE: Nausea [2, 9]: 1 (16.7) Number (%) of Subjects | Incidence of TEAE: Vomiting [2, 9]: 0 Number (%) of Subjects | Subjects who discontinued study drug due to increased pancreatic enzymes ([2]; MAD cohort 3 (750 mg q12h), asymptomatic, resolved without interventional treatment): One | Subjects reporting TEAEs ([2]; MAD overall, 18 of 30 subjects who received SPR720): 60.0% | Total number of TEAEs reported ([2]; MAD overall, 30 subjects): 101 | Serious adverse events ([2]; MAD study): No serious adverse events | Severity of TEAEs ([2]; MAD, all TEAEs): mild or moderate | Incidence of TEAE: Abdominal Pain ([2]; Overall MAD SPR720, N=30): 2 (6.7) Number (%) of Subjects | Incidence of TEAE: Diarrhea (first line) ([2]; Overall MAD SPR720, N=30): 13 (42.3) Number (%) of Subjects | Incidence of TEAE: Diarrhea (second line) ([2]; Overall MAD SPR720, N=30): 3 (10.0) Number (%) of Subjects | Incidence of TEAE: Headache ([2]; Overall MAD SPR720, N=30): 8 (26.7) Number (%) of Subjects | Incidence of TEAE: Nausea ([2]; Overall MAD SPR720, N=30): 7 (23.3) Number (%) of Subjects | Incidence of TEAE: Vomiting ([2]; Overall MAD SPR720, N=30): 4 (13.3) Number (%) of Subjects | Cases of Hy's Law ([2]; over 14 days of dosing): no cases | Elevations in ALT ([2]; over 14 days of dosing, slight, asymptomatic and reversible): < 3 ×ULN | Tolerability ([2]; repeat daily oral doses up to 1000 mg over maximum duration of 14 days): well-tolerated | Food effect: plasma exposure after high fat meal relative to fasted state [3]: no significant food effect
